{"source": "patent US20220242870A1", "about": "“HETEROCYCLE-FUSED PYRIMIDINE DERIVATIVE AND USE THEREOF” (VORONOI Inc., priority 2019, published 2022)", "key": {"human FLT3-ITD enzyme": {"target": "T1, human FLT3-ITD enzyme (Homo sapiens, UniProt P36888)", "T1 sequence (P36888 1-993)": "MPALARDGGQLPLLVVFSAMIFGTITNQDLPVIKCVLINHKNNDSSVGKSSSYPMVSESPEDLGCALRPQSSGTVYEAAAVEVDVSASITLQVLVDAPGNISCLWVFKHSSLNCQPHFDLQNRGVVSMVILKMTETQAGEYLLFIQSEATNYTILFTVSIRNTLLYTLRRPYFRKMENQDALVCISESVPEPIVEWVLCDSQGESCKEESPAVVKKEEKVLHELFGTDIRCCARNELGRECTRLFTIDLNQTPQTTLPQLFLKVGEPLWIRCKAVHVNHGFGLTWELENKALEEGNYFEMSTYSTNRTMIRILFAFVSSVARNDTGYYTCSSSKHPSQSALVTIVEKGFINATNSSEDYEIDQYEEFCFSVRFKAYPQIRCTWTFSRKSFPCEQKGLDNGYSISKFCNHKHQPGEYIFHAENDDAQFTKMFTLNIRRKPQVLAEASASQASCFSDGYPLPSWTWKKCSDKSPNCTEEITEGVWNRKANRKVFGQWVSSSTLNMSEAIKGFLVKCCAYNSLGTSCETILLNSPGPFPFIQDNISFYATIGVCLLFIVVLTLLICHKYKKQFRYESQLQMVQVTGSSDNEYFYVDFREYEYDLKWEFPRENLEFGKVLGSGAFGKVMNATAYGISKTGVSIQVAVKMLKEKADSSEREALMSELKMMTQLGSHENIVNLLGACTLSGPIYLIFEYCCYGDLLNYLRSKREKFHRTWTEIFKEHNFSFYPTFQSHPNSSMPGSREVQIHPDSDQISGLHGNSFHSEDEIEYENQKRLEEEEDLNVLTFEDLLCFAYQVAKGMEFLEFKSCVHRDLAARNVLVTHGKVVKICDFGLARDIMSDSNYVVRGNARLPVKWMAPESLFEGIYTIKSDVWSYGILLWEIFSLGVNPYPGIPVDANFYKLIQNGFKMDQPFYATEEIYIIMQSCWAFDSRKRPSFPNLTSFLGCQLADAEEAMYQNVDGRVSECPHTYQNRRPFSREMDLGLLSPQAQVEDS", "assay": "FLT3 enzyme inhibitory ability (ADP-Glo kinase assay)", "assay_type": "biochemical", "conditions": "human FLT3-ITD enzyme 10 ng, ATP 10 μM, 25° C. 1 hour", "method_in_brief": "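Purified human FLT3-ITD (10 ng) with 10 μM ATP and specific substrate in 40 mM Tris-HCl pH 7.4, 20 mM MgCl2, 0.5 mg/mL BSA, 50 μM DTT, 1 h at 25 °C. ADP formation read by ADP-Glo luminescence; IC50 (nM) versus solvent-treated control.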"}, "MAP3K3": {"target": "T2, MAP3K3 (Homo sapiens, UniProt Q99759)", "T2 construct": "purchased DiscoverX scanMAX kinase assay panel", "T2 sequence (Q99759 whole entry)": "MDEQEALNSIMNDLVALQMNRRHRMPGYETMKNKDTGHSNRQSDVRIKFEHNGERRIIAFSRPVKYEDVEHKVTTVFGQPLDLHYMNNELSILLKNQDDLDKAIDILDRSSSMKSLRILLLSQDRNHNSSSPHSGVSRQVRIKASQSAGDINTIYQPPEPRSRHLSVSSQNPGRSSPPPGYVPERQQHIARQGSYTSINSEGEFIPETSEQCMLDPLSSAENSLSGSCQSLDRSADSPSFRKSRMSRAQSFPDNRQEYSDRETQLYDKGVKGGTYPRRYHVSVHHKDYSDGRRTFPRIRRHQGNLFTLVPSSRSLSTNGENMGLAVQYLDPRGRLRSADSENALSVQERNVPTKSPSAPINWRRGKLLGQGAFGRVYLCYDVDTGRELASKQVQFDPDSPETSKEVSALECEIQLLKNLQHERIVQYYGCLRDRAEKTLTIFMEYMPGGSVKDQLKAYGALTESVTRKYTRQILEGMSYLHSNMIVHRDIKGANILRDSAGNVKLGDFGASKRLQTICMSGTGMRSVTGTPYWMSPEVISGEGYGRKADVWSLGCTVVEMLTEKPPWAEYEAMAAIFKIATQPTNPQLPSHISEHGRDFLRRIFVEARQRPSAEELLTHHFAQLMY", "assay": "scanMAX kinase assay panel", "assay_type": "binding", "conditions": "read-out: control percentage (% control)", "method_in_brief": "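Compound was applied as a 1 μM solution in DMSO across the scanMAX kinase panel. Activity is reported as % control, scaled between a positive control (0%) and the DMSO negative control (100%).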"}, "MV4-11 cells": {"tested_on": "MV4-11 cells", "assay": "AML cell proliferation inhibitory activity (CellTiter-Glo)", "assay_type": "cell-based", "conditions": "Homo sapiens, 72 hours", "method_in_brief": "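RS4;11 and MV4-11 cells in RPMI-1640 with 10% FBS, seeded 24 h before treatment, then exposed 72 h to 12 three-fold dilutions (0.3 nM–50 μM final). Viability by CellTiter-Glo luminescence relative to solvent control; GI50 from triplicate experiments.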"}}}
{"smiles": "CN1CCN(c2ccc(Nc3nc(N4OCC[C@H]4c4ccccc4)c4cc[nH]c4n3)cc2)CC1", "note": "[Example 74, (S)-N-(4-(4-methylpiperazin-1-yl)phenyl)-4-(3-phenylisoxazolidin-2-yl)-7H-pyrrolo[2,3-d]pyrimidin-2-amine]", "values": [{"measurement": "IC50", "setting": "human FLT3-ITD enzyme", "value": "> 500", "unit": "nM"}, {"measurement": "remaining binding at 1 µM", "setting": "MAP3K3", "value": 25, "unit": "%"}, {"measurement": "GI50", "setting": "MV4-11 cells", "value": "≥ 250", "unit": "nM"}]}
